Converted amounts (≈) assume the structure as drawn.
How the values were obtained:
[1] = in vivo; details: mouse, iv
Source text: Further, in order to estimate acute toxicity of the compound of the general formula (I) according to this invention, some examples of the compounds of this invention were independently dissolved in water to prepare aqueous solutions (as adjusted to pH 7 by addition of hydrochloric acid). […] The tested compounds of this invention are expressed by the same abbreviations as in Table 1. […] The comparative compounds as tested are also expressed by the same abbreviations as in Table 1.

[2] = tested on: Staphylococcus aureus 209P; test: MIC, standard serial dilution method; format: cell-based; details: Mueller-Hinton agar, 37° C
[3] = tested on: Staphylococcus aureus Ap01; test: MIC, standard serial dilution method; format: cell-based; details: resistance mechanism ANT(4'), Mueller-Hinton agar, 37° C
[4] = tested on: Bacillus subtilis PCI219; test: MIC, standard serial dilution method; format: cell-based; details: Mueller-Hinton agar, 37° C
[5] = tested on: Corynebacterium bovis 1810; test: MIC, standard serial dilution method; format: cell-based; details: Mueller-Hinton agar, 37° C
[6] = tested on: Escherichia coli K-12; test: MIC, standard serial dilution method; format: cell-based; details: K12; Escherichia coli K-12; Mueller-Hinton agar, 37° C; read-out: MIC
[7] = tested on: Escherichia coli K-12 R5; test: microbe, parasite or virus in culture; format: cell-based; details: K12R5
[8] = tested on: Escherichia coli K-12 ML 1629; test: microbe, parasite or virus in culture; format: cell-based; details: K12ML1629; Escherichia coli K-12 ML 1629; resistance mechanism APH(3')-I; Mueller-Hinton agar, 37° C; read-out: MIC
[9] = tested on: Escherichia coli K-12 LA 290 R55; test: microbe, parasite or virus in culture; format: cell-based; details: K12LA290R55; Escherichia coli K-12 LA 290 R55; resistance mechanism ANT(2"); Mueller-Hinton agar, 37° C
[10] = tested on: Escherichia coli JR225; test: microbe, parasite or virus in culture; format: cell-based; details: resistance mechanism AAC(3), Mueller-Hinton agar, 37° C
[11] = tested on: Escherichia coli JR66/W677; test: microbe, parasite or virus in culture; format: cell-based; details: resistance mechanism APH(3')-II, ANT(2"), Mueller-Hinton agar, 37° C
[12] = tested on: Mycobacterium 607; test: MIC, standard serial dilution method; format: cell-based; details: Mueller-Hinton agar, 37° C
[13] = tested on: Klebsiella pneumoniae 22#3038; test: MIC, standard serial dilution method; format: cell-based; details: resistance mechanism APH(3')-II, ANT(2"), Mueller-Hinton agar, 37° C
[14] = tested on: Proteus rettgeri GN 311; test: MIC, standard serial dilution method; format: cell-based; details: Providencia rettgeri, GN311; Proteus rettgeri GN 311; Mueller-Hinton agar, 37° C; read-out: MIC
[15] = tested on: Serratia marcescens; test: MIC, standard serial dilution method; format: cell-based; details: Mueller-Hinton agar, 37° C
[16] = tested on: Providencia sp. Pv 16; test: MIC, standard serial dilution method; format: cell-based; details: SP.PV16, resistance mechanism AAC(2'), Mueller-Hinton agar, 37° C
[17] = tested on: Pseudomonas aeruginosa A3; test: MIC, standard serial dilution method; format: cell-based; details: Mueller-Hinton agar, 37° C
[18] = tested on: Pseudomonas aeruginosa GN 315; test: MIC, standard serial dilution method; format: cell-based; details: GN315; Pseudomonas aeruginosa GN 315; resistance mechanism AAC(6'); Mueller-Hinton agar, 37° C; read-out: MIC
[19] = Escherichia coli K-12 R5, resistance mechanism AAC(6'), Mueller-Hinton agar, 37° C

## NC[C@H]1O[C@H](O[C@H]2[C@H](F)[C@@H](O[C@H]3O[C@H](CO)[C@@H](O)[C@H](N)[C@H]3O)[C@H](N)C[C@@H]2N)[C@H](N)[C@@H](O)[C@@H]1O [5-deoxy-5-fluorokanamycin B, reference compound]
[1]
  LD50: ~135 mg/kg

## CN[C@@H]1[C@@H](O)[C@@H](O[C@H]2[C@H](NC(=O)[C@@H](O)CCN)C[C@H](N)[C@@H](O[C@H]3O[C@H]([C@@H](C)NC)CC[C@H]3N)C2(F)F)OC[C@]1(C)O [5FF-Genta-C1-AHB, 1-N-[(S)-4-amino-2-hydroxybutyryl]-5-deoxy-5,5-difluorogentamicin C1]
[2]
  MIC: 1.56 mg/L (≈ 2.61 µM)
[3]
  MIC: 25 mg/L (≈ 41.8 µM)
[4]
  MIC: 1.56 mg/L (≈ 2.61 µM)
[5]
  MIC: 0.78 mg/L (≈ 1.3 µM)
[6]
  MIC: < 0.2 mg/L
[7]; Escherichia coli
  MIC: 0.78 mg/L (≈ 1.3 µM)
[8]
  MIC: 1.56 mg/L (≈ 2.61 µM)
[9]
  MIC: 0.39 mg/L (≈ 0.651 µM)
[10]
  MIC: < 0.2 mg/L
[11]
  MIC: 3.12 mg/L (≈ 5.21 µM)
[12]
  MIC: 3.12 mg/L (≈ 5.21 µM)
[13]
  MIC: 1.56 mg/L (≈ 2.61 µM)
[14]
  MIC: 1.56 mg/L (≈ 2.61 µM)
[15]
  MIC: 3.12 mg/L (≈ 5.21 µM)
[16]
  MIC: 6.25 mg/L (≈ 10.4 µM)
[17]
  MIC: 6.25 mg/L (≈ 10.4 µM)
[18]
  MIC: 100 mg/L (≈ 167 µM)

## CN[C@@H]1[C@@H](O)[C@@H](O[C@H]2[C@H](NC(=O)[C@@H](O)CCN)C[C@H](N)[C@@H](O[C@H]3O[C@H]([C@@H](C)N)CC[C@H]3N)C2(F)F)OC[C@]1(C)O [5FF-Genta-C2-AHB, 1-N-[(S)-4-amino-2-hydroxybutyryl]-5-deoxy-5,5-difluorogentamicin C2]
[2]
  MIC: 0.78 mg/L (≈ 1.33 µM)
[3]
  MIC: 12.5 mg/L (≈ 21.4 µM)
[4]
  MIC: 0.2 mg/L (≈ 0.342 µM)
[5]
  MIC: 0.2 mg/L (≈ 0.342 µM)
[6]
  MIC: < 0.2 mg/L
[7]; [19]
  MIC: 3.12 mg/L (≈ 5.34 µM)
[8]
  MIC: 0.39 mg/L (≈ 0.667 µM)
[9]
  MIC: 0.2 mg/L (≈ 0.342 µM)
[10]
  MIC: < 0.2 mg/L
[11]
  MIC: 0.78 mg/L (≈ 1.33 µM)
[12]
  MIC: 3.12 mg/L (≈ 5.34 µM)
[13]
  MIC: 1.56 mg/L (≈ 2.67 µM)
[14]
  MIC: 0.78 mg/L (≈ 1.33 µM)
[15]
  MIC: 3.12 mg/L (≈ 5.34 µM)
[16]
  MIC: 6.25 mg/L (≈ 10.7 µM)
[17]
  MIC: 3.12 mg/L (≈ 5.34 µM)
[18]
  MIC: 100 mg/L (≈ 171 µM)

## NCC[C@H](O)C(=O)N[C@@H]1C[C@H](N)[C@@H](O[C@H]2O[C@H](CN)[C@@H](O)[C@H](O)[C@H]2O)[C@H](O)[C@H]1O[C@H]1O[C@H](CO)[C@@H](O)[C@H](N)[C@H]1O [Amikacin, amikacin, reference compound]
[3]
  MIC: > 100 mg/L
[4]
  MIC: 0.39 mg/L (≈ 0.666 µM)
[5]
  MIC: 1.56 mg/L (≈ 2.66 µM)
[7]; [19]
  MIC: 100 mg/L (≈ 171 µM)
[8]
  MIC: 1.56 mg/L (≈ 2.66 µM)
[9]
  MIC: 1.56 mg/L (≈ 2.66 µM)
[13]
  MIC: 3.12 mg/L (≈ 5.33 µM)
[14]
  MIC: 1.56 mg/L (≈ 2.66 µM)
[15]
  MIC: 3.12 mg/L (≈ 5.33 µM)
[16]
  MIC: 1.56 mg/L (≈ 2.66 µM)
[18]
  MIC: 50 mg/L (≈ 85.4 µM)
[1]; pH 7
  LD50: > 300 mg/kg

## NC[C@@H]1CC[C@@H](N)[C@@H](O[C@H]2[C@H](F)[C@@H](O[C@H]3O[C@H](CO)[C@@H](O)[C@H](N)[C@H]3O)[C@H](N)C[C@@H]2N)O1 [Compound 5F-DKB, 5,3',4'-trideoxy-5-fluorokanamycin B, reference compound]
[3]
  MIC: 3.12 mg/L (≈ 6.88 µM)
[5]
  MIC: 6.25 mg/L (≈ 13.8 µM)
[6]
  MIC: 3.12 mg/L (≈ 6.88 µM)
[8]
  MIC: 3.12 mg/L (≈ 6.88 µM)
[12]
  MIC: 6.25 mg/L (≈ 13.8 µM)
[13]
  MIC: 6.25 mg/L (≈ 13.8 µM)
[1]; pH 7
  LD50: ~135 mg/kg

## NCC[C@H](O)C(=O)N[C@@H]1C[C@H](N)[C@@H](O[C@H]2O[C@H](CN)CC[C@H]2N)[C@H](F)[C@H]1O[C@H]1O[C@H](CO)[C@@H](O)[C@H](N)[C@H]1O [Compound 5F-DKB-AHB, 1-N-[4-amino-2-(S)-hydroxybutyryl]-5,3',4'-trideoxy-5-fluorokanamycin B, reference compound]
[3]
  MIC: 1.56 mg/L (≈ 2.81 µM)
[4]
  MIC: < 0.2 mg/L
[6]
  MIC: < 0.2 mg/L
[7]; [19]
  MIC: 12.5 mg/L (≈ 22.5 µM)
[8]
  MIC: 0.39 mg/L (≈ 0.703 µM)
[9]
  MIC: 0.39 mg/L (≈ 0.703 µM)
[10]
  MIC: < 0.2 mg/L
[13]
  MIC: 0.78 mg/L (≈ 1.41 µM)
[15]
  MIC: 3.12 mg/L (≈ 5.63 µM)
[16]
  MIC: 0.39 mg/L (≈ 0.703 µM)

## NC[C@H]1O[C@H](O[C@H]2[C@H](F)[C@@H](O[C@H]3O[C@H](CO)[C@@H](O)[C@H](N)[C@H]3O)[C@H](N)C[C@@H]2N)[C@H](N)C[C@@H]1O [Compound 5F-TOB, 5,3'-dideoxy-5-fluorokanamycin B, reference compound]
[4]
  MIC: < 0.2 mg/L
[13]
  MIC: 3.12 mg/L (≈ 6.65 µM)
[16]
  MIC: 3.12 mg/L (≈ 6.65 µM)
[1]; pH 7
  LD50: ~180 mg/kg

Reference: patent US5527781A, “4-O-(aminoglycosyl)- or 4,6-di-O-(aminoglycosyl)-2,5-dideoxy-5,5-difluorostreptamine derivatives” (Zaidan Hojin Biseibutsu Kagaku Kenkyu Kai, priority 1990, dated 1996)
